# Measured values taken from ChEMBL document CHEMBL6153096, “Development of Potent and Selective CK1α Molecular Glue Degraders” (J Med Chem, 2025).
# Active and inactive are the calls of the source. The calls are words filed in the database; no cut-off is given here.
# Legend:
# [1] = target: T1, Cereblon/Casein kinase I alpha (Homo sapiens, UniProt P48729+Q96SW2); test: Molecular glue activity at CRBN/HiBiT-tagged CK1-alpha in human Jurkat cells assessed as induction of CK1-alpha degradation incubated for 5 hrs by Nano-Glo HiBiT assay; format: cell-based
# [2] = target: T1, Cereblon/Casein kinase I alpha; test: Molecular glue activity at CRBN/CK1-alpha in human MOLM-13 cells assessed as induction of CK1-alpha degradation at 1 uM incubated for 5 hrs by Western blot analysis; format: cell-based
# Target sequence in this assay (P48729 2-337 limits assumed): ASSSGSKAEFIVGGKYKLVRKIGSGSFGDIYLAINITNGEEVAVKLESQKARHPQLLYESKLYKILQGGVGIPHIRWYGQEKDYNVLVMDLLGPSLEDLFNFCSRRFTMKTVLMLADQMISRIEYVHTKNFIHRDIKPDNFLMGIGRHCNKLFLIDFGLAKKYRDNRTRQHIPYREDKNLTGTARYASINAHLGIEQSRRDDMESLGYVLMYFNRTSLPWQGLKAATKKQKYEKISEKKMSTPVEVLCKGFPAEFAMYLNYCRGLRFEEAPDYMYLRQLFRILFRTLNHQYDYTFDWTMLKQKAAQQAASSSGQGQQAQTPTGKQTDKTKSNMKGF
# Target sequence in this assay (Q96SW2 whole entry partner): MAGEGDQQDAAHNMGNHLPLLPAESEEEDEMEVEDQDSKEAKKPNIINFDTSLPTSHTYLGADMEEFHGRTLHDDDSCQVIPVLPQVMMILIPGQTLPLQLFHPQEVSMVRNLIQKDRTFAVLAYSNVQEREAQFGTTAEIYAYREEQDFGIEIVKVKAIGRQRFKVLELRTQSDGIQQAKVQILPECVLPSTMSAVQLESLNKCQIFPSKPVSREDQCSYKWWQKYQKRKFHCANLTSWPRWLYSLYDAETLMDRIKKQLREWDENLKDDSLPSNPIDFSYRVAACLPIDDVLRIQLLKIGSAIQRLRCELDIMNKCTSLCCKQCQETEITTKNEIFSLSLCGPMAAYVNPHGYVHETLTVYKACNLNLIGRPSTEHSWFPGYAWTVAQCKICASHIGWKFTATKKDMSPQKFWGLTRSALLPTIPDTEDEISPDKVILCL
# [3] = target: T1, Cereblon/Casein kinase I alpha; test: Molecular glue activity at CRBN/CK1-alpha in human MOLM-14 cells assessed as induction of CK1-alpha degradation at 1 uM incubated for 5 hrs by Western blot analysis; format: cell-based
# Target sequence in this assay (P48729 2-337 limits assumed): as the sequence (P48729 2-337 limits assumed) above
# Target sequence in this assay (Q96SW2 whole entry partner): as the sequence (Q96SW2 whole entry partner) above
# [4] = target: T1, Cereblon/Casein kinase I alpha; test: Molecular glue activity at CRBN/CK1-alpha in human MOLM-14 cells assessed as increase in p21 level at 0.1 to 1 uM incubated for 24 hrs by Western blot analysis; format: cell-based; settings: dose 0.1-1 µM
# Target sequence in this assay (P48729 2-337 limits assumed): as the sequence (P48729 2-337 limits assumed) above
# Target sequence in this assay (Q96SW2 whole entry partner): as the sequence (Q96SW2 whole entry partner) above
# [5] = target: T1, Cereblon/Casein kinase I alpha; test: Molecular glue activity at CRBN/CK1-alpha in human MOLM-14 cells assessed as increase in MDM2 level at 0.1 to 1 uM incubated for 24 hrs by Western blot analysis; format: cell-based; settings: dose 0.1-1 µM
# Target sequence in this assay (P48729 2-337 limits assumed): as the sequence (P48729 2-337 limits assumed) above
# Target sequence in this assay (Q96SW2 whole entry partner): as the sequence (Q96SW2 whole entry partner) above
# [6] = target: T1, Cereblon/Casein kinase I alpha; test: Molecular glue activity at CRBN/CK1-alpha in human MOLM-14 cells assessed as increase in p53 level at 0.1 to 1 uM incubated for 24 hrs by Western blot analysis; format: cell-based; settings: dose 0.1-1 µM
# Target sequence in this assay (P48729 2-337 limits assumed): as the sequence (P48729 2-337 limits assumed) above
# Target sequence in this assay (Q96SW2 whole entry partner): as the sequence (Q96SW2 whole entry partner) above
# [7] = target: T1, Cereblon/Casein kinase I alpha; test: Molecular glue activity at CRBN/CK1-alpha in human MOLM-13 cells assessed as increase in p21 level at 0.1 to 1 uM incubated for 24 hrs by Western blot analysis; format: cell-based; settings: dose 0.1-1 µM
# Target sequence in this assay (P48729 2-337 limits assumed): as the sequence (P48729 2-337 limits assumed) above
# Target sequence in this assay (Q96SW2 whole entry partner): as the sequence (Q96SW2 whole entry partner) above
# [8] = target: T1, Cereblon/Casein kinase I alpha; test: Molecular glue activity at CRBN/CK1-alpha in human MOLT-4 cells with CRBN-/- assessed as induction of CK1-alpha degradation at 1 uM incubated for 5 hrs by quantitative mass spectrometry based proteomic analysis; format: cell-based
# [9] = target: T1, Cereblon/Casein kinase I alpha; test: Molecular glue activity at CRBN/CK1-alpha in human MOLM-13 cells assessed as increase in MDM2 level at 0.1 to 1 uM incubated for 24 hrs by Western blot analysis; format: cell-based; settings: dose 0.1-1 µM
# [10] = target: T1, Cereblon/Casein kinase I alpha; test: Molecular glue activity at CRBN/CK1-alpha in human MOLM-13 cells assessed as increase in p53 level at 0.1 to 1 uM incubated for 24 hrs by Western blot analysis; format: cell-based; settings: dose 0.1-1 µM
# [11] = Metabolic stability in human liver microsomes assessed as half life; format: ADME, Microsome
# MOLM-13 = test: Antiproliferative activity against human MOLM-13 cells incubated for 72 hrs by CellTiter-Glo Luminescent Cell Viability Assay; format: functional, cell-based; settings: MOLM-13, 72 h
# [12] = Metabolic stability in mouse liver microsomes assessed as intrinsic clearance; format: ADME, Microsome
# MOLM-14 [13] = test: Antiproliferative activity against human MOLM-14 cells with CRBN-/- incubated for 72 hrs by CellTiter-Glo Luminescent Cell Viability Assay; format: functional, cell-based
# [14] = Metabolic stability in mouse liver microsomes assessed as half life; format: ADME, Microsome; settings: for t1/2: microsomes
# MOLM-14 [15] = test: Antiproliferative activity against human MOLM-14 cells incubated for 72 hrs by CellTiter-Glo Luminescent Cell Viability Assay; format: functional, cell-based
# [16] = Metabolic stability in human liver microsomes assessed as intrinsic clearance; format: ADME, Microsome
# MOLT-4 [17] = test: Induction of WEE1 degradation in human MOLT-4 cells at 1 uM incubated for 5 hrs by quantitative mass spectrometry based proteomic analysis; format: cell-based
# MOLT-4 [18] = test: Induction of GSPT1 degradation in human MOLT-4 cells at 1 uM incubated for 5 hrs by quantitative mass spectrometry based proteomic analysis; format: cell-based
# MOLT-4 [19] = test: Induction of IKZF1 degradation in human MOLT-4 cells at 1 uM incubated for 5 hrs by quantitative mass spectrometry based proteomic analysis; format: cell-based
# [20] = target: Zinc finger protein Aiolos (Homo sapiens) (UniProt Q9UKT9); test: Induction of IKZF3 degradation in human MOLT-4 cells at 1 uM incubated for 5 hrs by quantitative mass spectrometry based proteomic analysis; format: cell-based
# Sequence of Zinc finger protein Aiolos (Homo sapiens) (Q9UKT9 whole entry): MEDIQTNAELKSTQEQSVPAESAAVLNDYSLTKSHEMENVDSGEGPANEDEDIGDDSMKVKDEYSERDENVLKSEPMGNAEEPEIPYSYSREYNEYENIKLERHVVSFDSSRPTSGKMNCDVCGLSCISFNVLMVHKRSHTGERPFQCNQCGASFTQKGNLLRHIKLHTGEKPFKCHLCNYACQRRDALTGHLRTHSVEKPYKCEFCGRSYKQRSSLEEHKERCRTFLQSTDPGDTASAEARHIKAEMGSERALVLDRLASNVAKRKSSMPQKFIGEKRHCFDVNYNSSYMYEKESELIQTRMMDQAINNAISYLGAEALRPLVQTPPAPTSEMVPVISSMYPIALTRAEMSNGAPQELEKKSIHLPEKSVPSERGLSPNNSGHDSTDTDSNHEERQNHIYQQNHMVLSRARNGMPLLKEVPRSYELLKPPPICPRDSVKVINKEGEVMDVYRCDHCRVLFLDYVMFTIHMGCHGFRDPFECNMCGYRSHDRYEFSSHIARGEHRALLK
# [21] = target: T1, Cereblon/Casein kinase I alpha; test: Molecular glue activity at CRBN/CK1-alpha in human MOLT-4 cells assessed as induction of CK1-alpha degradation at 1 uM incubated for <3 hrs by Western blot analysis; format: cell-based
smiles,measurement,setting,value
CN1C(=O)CCC(N2Cc3cc(NC(=O)c4cn5ccccc5n4)ccc3C2=O)C1=O (stereo unspecified),DC50,[1],> 10000 nM
same,Activity,[2],Active
same,Activity,[3],Active
O=C1CCC(N2Cc3cc(Nc4noc5ccccc45)ccc3C2=O)C(=O)N1 (stereo unspecified),Activity,[4],Active
same,Activity,[5],Active
same,Activity,[6],Active
same,Activity,[7],Active
same,Activity,[8],Not active; Compound Induced Ck1-Alpha Degradation In A Crbn Dependent Manner
same,Activity,[9],Active
same,Activity,[10],Active
O=C1CCC(N2Cc3cc(NC(=O)c4cc5ccccn5n4)ccc3C2=O)C(=O)N1 (stereo unspecified),t1/2,[11],65.4 min
same,DC50,[1],4.7 nM
same,Activity,[2],Active
same,IC50,MOLM-13,14 nM
same,CLH,[12],111 µL/min/mg
same,Activity,[3],Active
same,Activity,MOLM-14 [13],inactive
same,t1/2,[14],6.3 min
same,Activity,MOLM-14 [15],Active
same,CLH,[16],11 µL/min/mg
O=C1CCC(N2Cc3ccc(NC(=O)c4cn5ccccc5n4)cc3C2=O)C(=O)N1 (stereo unspecified),DC50,[1],> 10000 nM
O=C1CCC(N2Cc3cc(CNC(=O)c4cn5ccccc5n4)ccc3C2=O)C(=O)N1 (stereo unspecified),DC50,[1],> 10000 nM
O=C1CCC(N2Cc3cc(NC(=O)c4cnc5ccccc5n4)ccc3C2=O)C(=O)N1 (stereo unspecified),DC50,[1],8.8 nM
O=C1CCC(N2Cc3cc(CNC(=O)c4cnc5ccccc5c4)ccc3C2=O)C(=O)N1 (stereo unspecified),DC50,[1],> 10000 nM
O=C1CCC(N2C(=O)c3ccc(NC(=O)c4cnc5ccccc5c4)cc3C2=O)C(=O)N1 (stereo unspecified),DC50,[1],79 nM
COc1ccc2cc(C(=O)Nc3ccc4c(c3)CN(C3CCC(=O)NC3=O)C4=O)ccc2c1 (stereo unspecified),Activity,[4],Active
same,Activity,[5],Active
same,Activity,[6],Active
same,Activity,[7],Active
same,Activity,[8],Not active; Compound Induced Ck1-Alpha Degradation In A Crbn Dependent Manner
same,Activity,[9],Active
same,Activity,[10],Active
O=C1CCC(N2Cc3cc(-c4cnc5ccccc5c4)ccc3C2=O)C(=O)N1 (stereo unspecified),Activity,[4],Active
same,Activity,MOLT-4 [17],inactive
same,t1/2,[11],> 120 min
same,DC50,[1],46.8 nM
same,Activity,[5],Active
same,Activity,[2],Active
same,Activity,[6],Active
same,IC50,MOLM-13,2400 nM
same,Activity,MOLT-4 [18],inactive
same,CLH,[12],11 µL/min/mg
same,Activity,[3],Active
same,Activity,MOLM-14 [13],inactive
same,t1/2,[14],65.6 min
same,Activity,[7],Active
same,Activity,MOLT-4 [19],inactive
same,Activity,[20],inactive
same,Activity,MOLM-14 [15],Active
same,Activity,[8],Not active; Compound Induced Ck1-Alpha Degradation In A Crbn Dependent Manner
same,Activity,[21],Active
same,CLH,[16],< 6 µL/min/mg
same,Activity,[9],Active
same,Activity,[10],Active
O=C1CCC(N2Cc3cc(NC(=O)c4cn5cc(Cl)ccc5n4)ccc3C2=O)C(=O)N1 (stereo unspecified),DC50,[1],1.3 nM
same,EC90,[1],14.9 nM
O=C1CCC(N2C(=O)c3ccc(NC(=O)c4cn5ccccc5n4)cc3C2=O)C(=O)N1 (stereo unspecified),DC50,[1],88 nM
COc1ccn2cc(C(=O)Nc3ccc4c(c3)CN(C3CCC(=O)NC3=O)C4=O)nc2c1 (stereo unspecified),DC50,[1],3.1 nM
same,EC90,[1],53 nM
O=C1CCC(N2Cc3cc(NC(=O)c4cc5ccccn5c4)ccc3C2=O)C(=O)N1 (stereo unspecified),DC50,[1],87 nM
O=C1CCC(N2Cc3c(CNC(=O)c4cnc5ccccc5c4)cccc3C2=O)C(=O)N1 (stereo unspecified),DC50,[1],138 nM
Cc1c(C(=O)Nc2ccc3c(c2)CN(C2CCC(=O)NC2=O)C3=O)nc2ccccn12 (stereo unspecified),DC50,[1],8.4 nM
O=C1CCC(N2Cc3cc(NC(=O)c4cn5cc(F)ccc5n4)ccc3C2=O)C(=O)N1 (stereo unspecified),DC50,[1],6.1 nM
same,EC90,[1],45.5 nM
COc1cccn2cc(C(=O)Nc3ccc4c(c3)CN(C3CCC(=O)NC3=O)C4=O)nc12 (stereo unspecified),DC50,[1],8.1 nM
same,EC90,[1],73.1 nM
O=C1CCC(N2Cc3cc(NC(=O)c4cnc5ccccc5c4)ccc3C2=O)C(=O)N1 (stereo unspecified),Activity,MOLT-4 [17],inactive
same,t1/2,[11],23.4 min
same,DC50,[1],79 nM
same,Activity,MOLT-4 [18],inactive
same,CLH,[12],< 6 µL/min/mg
same,t1/2,[14],> 120 min
same,Activity,MOLT-4 [19],inactive
same,Activity,[20],inactive
same,CLH,[16],30 µL/min/mg
COc1ccc2nc(C(=O)Nc3ccc4c(c3)CN(C3CCC(=O)NC3=O)C4=O)cn2c1 (stereo unspecified),t1/2,[11],33.2 min
same,DC50,[1],1.1 nM
same,EC90,[1],16.2 nM
same,Activity,[2],Active
same,IC50,MOLM-13,23 nM
same,CLH,[12],< 6 µL/min/mg
same,Activity,[3],Active
same,Activity,MOLM-14 [13],inactive
same,t1/2,[14],> 120 min
same,Activity,MOLM-14 [15],Active
same,CLH,[16],21 µL/min/mg
O=C1CCC(N2Cc3cc(NC(=O)c4nc5ccccn5n4)ccc3C2=O)C(=O)N1 (stereo unspecified),DC50,[1],61 nM
O=C1CCC(N2Cc3cc(NC(=O)c4cc5ncccn5n4)ccc3C2=O)C(=O)N1 (stereo unspecified),DC50,[1],61 nM
O=C1CCC(N2Cc3cc(NC(=O)c4cc5ccccc5cn4)ccc3C2=O)C(=O)N1 (stereo unspecified),Activity,MOLT-4 [17],inactive
same,DC50,[1],7.56 nM
same,Activity,MOLT-4 [18],inactive
same,Activity,MOLT-4 [19],inactive
same,Activity,[20],inactive
Cc1cccc2nc(C(=O)Nc3ccc4c(c3)CN(C3CCC(=O)NC3=O)C4=O)cn12 (stereo unspecified),DC50,[1],3.3 nM
same,EC90,[1],35.3 nM
O=C1CCC(N2Cc3cc(NC(=O)c4cn5ccc(F)cc5n4)ccc3C2=O)C(=O)N1 (stereo unspecified),DC50,[1],17.5 nM
same,EC90,[1],135 nM
O=C1CCC(N2Cc3cc(NC(=O)c4cn5cccc(C(F)(F)F)c5n4)ccc3C2=O)C(=O)N1 (stereo unspecified),DC50,[1],1.6 nM
same,EC90,[1],25 nM
same,Activity,[2],Active
same,IC50,MOLM-13,29 nM
same,Activity,[3],Active
same,Activity,MOLM-14 [13],inactive
same,Activity,MOLM-14 [15],Active
O=C1CCC(N2Cc3c(NC(=O)c4cnc5ccccc5c4)cccc3C2=O)C(=O)N1 (stereo unspecified),DC50,[1],> 10000 nM
O=C1CCC(N2Cc3cc(NC(=O)c4nc5ccccc5[nH]4)ccc3C2=O)C(=O)N1 (stereo unspecified),DC50,[1],11.1 nM
CCN(CC)CCNC(=O)c1c(C)[nH]c(/C=C2\C(=O)Nc3ccc(F)cc32)c1C [SUNITINIB],t1/2,[11],39.4 min
same,CLH,[12],33 µL/min/mg
same,half-life,[14]; liver microsomes,20.9 min
same,CLH,[16],18 µL/min/mg
O=C1CCC(N2Cc3cc(NC(=O)c4cnc5ccccn45)ccc3C2=O)C(=O)N1 (stereo unspecified),DC50,[1],82 nM
